Source: patent US12257214B2, “Compositions and methods comprising deoxy-pentitols” (The Charlotte Mecklenburg Hospital Authority, priority 2021, dated 2025)
Read-outs that look alike come from different tables or passages of the source.

Assays:
[1] = system: prostate cancer cell line LNCaP; test: LNCaP cell culture, growth and death (FIG. 5, FIG. 10); format: cell-based; settings: for number of cancer cells / anticancer effect: 10 mM, 7 days (FIG. 10)
Protocol: A dose dependent decrease in cell density was clearly detected with 2-deoxyribitol treatment, but not with ribitol treatment.
Less than 50% of cells and 10% of cells were detected with the treatment of 10 mM and 50 mM 2-deoxyribitol, respectively.

MCF7 cells = test: Mammosphere formation (FIG. 4); format: cell-based; settings: MCF7, Vitamin C 50 μM 5 days, then normal medium 6 days
Protocol: Cells were also treated with Vitamin C (VitC) at a concentration of 50 μM for 5 days (5d) and then returned to normal medium (NM) for 6 days (d6), without (lower left panel) or with 2-deoxyribitol (Drug, lower right panel). The formation of cancer mammospheres, considered to be cancer stem cell-rich population, can be seen in culture without Drug treatment, and with Vitamin C treatment only. Drug treatment greatly reduces to eliminates the formation of cancer mammospheres.
To examine mammosphere formation, MCF7 cells were grown for 11 days with or without 2-deoxyribitol (drug) treatment (FIG. 4, top panels). In addition, MCF7 cells were treated with Vitamin C at the concentration of 50 μM for 5 days and then returned to normal medium (“NM”) for 6 days (FIG. 4, lower panels).

[2] = system: breast cancer cell line MCF7; test: MCF7 cell culture, growth and death (FIG. 2); format: cell-based; settings: MCF7, 0.4-50 mM, 3 day treatment
Protocol: From left-top-to-bottom: Control, 0.4 mM Drug, 2 mM rib, and 10 mM Drug; From right-top-to-bottom: 0.4 mM rib; 2 mM Drug; 10 mM rib; and 50 mM Drug.
However, this effect was not related to the enhanced expression of glycosylation of α-DG.

[3] = system: alpha dystroglycan (α-DG); settings: cited from earlier work
[4] = Pei Lu et al., (2020) Sci Rep 10(1):4935

Structure (SMILES)	number of cancer cells / anticancer effect [1]	glycosylation of α-DG [3, 4]	also measured
O=CC[C@H](O)[C@H](O)CO [2-deoxyribose, reference compound]	did not show the same anticancer effects		
O=C1O[C@H]([C@@H](O)CO)C(O)=C1O [Vitamin C, reference compound]			number of mammospheres, Vitamin C then normal medium (MCF7 cells): greatly increased the number of well-defined mammospheres
OC[C@@H](O)[C@@H](O)[C@@H](O)CO [ribitol, reference compound]	did not show the same anticancer effects		effect on cell growth, death and morphology [2]: no clear effect on cell growth and morphology; effect on cell growth, death and cell density ([1]; 2-50 mM, 4 days): slightly increased; glycosylation of α-DG ([3]; some cancer cells including MCF7, background statement): enhances glycosylation of α-DG
O=P(O)(O)OC[C@@H](O)[C@@H](O)[C@@H](O)CO [ribitol-5-phosphate]		showed an effect of enhancing glycosylation of α-DG	
O=C[C@H](O)[C@H](O)[C@H](O)CO [ribose]		showed an effect of enhancing glycosylation of α-DG	
O=C(CO)[C@H](O)[C@H](O)CO [ribulose]		showed an effect of enhancing glycosylation of α-DG	
